Measurements: publication PMC5011342, “A high throughput drug screening assay to identify compounds that promote oligodendrocyte differentiation using acutely dissociated and purified oligodendrocyte precursor cells” (BMC Research Notes, 2016)
Read-outs that look alike come from different tables or passages of the source.

What was measured:
[1] = test system: acutely dissociated and purified rat OPCs; test: Acute OL differentiation assay (MBP expression/cell, immunofluorescent image quantification); format: cell-based; details: sheet "All OLga data"; for activation at 2 µM / activation at 10 µM / activation at 0.4 µM / activation at 0.08 µM: Rattus norvegicus; for activation at 0.08 µM: test compound at 0.08 uM, read-out: 0.08 uM (% Quet)
In short: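 Oligodendrocyte precursor cells were enriched from P6-P7 Sprague–Dawley rat brains by immunopanning (RAN-2 and GalC depletion, O4 selection), plated at 5000 cells/well in serum-free, mitogen-free differentiation media on PDL/laminin 96-well view plates, centrifuged at 200×g, and pre-incubated 1–2 h before test compounds were added in quadruplicate. On DIV4, cells were fixed, stained for MBP and DAPI, imaged automatically, and MBP expression per cell was quantified.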

expanded OPCs = test: cells; details: for viability at 0.1 µM / viability at 1 µM / viability at 10 µM: Rattus norvegicus, 72 h; for 0.1 µM (% DMSO) / 1 µM (% DMSO) / 10 µM (% DMSO): alamarBlue viability of expanded OPCs; for 0.1 µM (% DMSO): compound at 0.1 µM; for 1 µM (% DMSO): compound at 1 µM; for 10 µM (% DMSO): compound at 10 µM
In short: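 Expanded OPCs seeded at 10,000 cells/well in differentiation media, then exposed to NCC library compounds at 10, 1 and 0.1 µM (quadruplicate, 0.1% DMSO) for three days. Viability read as alamarBlue fluorescence (560/590 nm) after 4 h at 37 °C; tunicamycin 5 ng/ml served as toxicity control.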

[2] = test compound at 2 uM, NCC library screen, relative to quetiapine, read-out: 2 uM (% Quet)
[3] = test compound at 10 uM, NCC library screen, relative to quetiapine, read-out: 10 uM (% Quet)
[4] = read-out: 0.1 µM (% DMSO), alamarBlue viability, NCC library compound at 0.1 µM, sheet "All Tox data"
[5] = read-out: 1 µM (% DMSO), alamarBlue viability, NCC library compound at 1 µM, sheet "All Tox data"
[6] = read-out: 10 µM (% DMSO), alamarBlue viability, NCC library compound at 10 µM, sheet "All Tox data"
[7] = 2 uM test compound, relative to quetiapine, read-out: OL differentiation, 2 uM (% Quet)
[8] = 10 uM test compound, relative to quetiapine, read-out: OL differentiation, 10 uM (% Quet)
[9] = read-out: 0.1 µM (% DMSO), alamarBlue viability of expanded OPCs, compound at 0.1 µM, sheet All Tox data
[10] = read-out: 1 µM (% DMSO), alamarBlue viability of expanded OPCs, compound at 1 µM, sheet All Tox data
[11] = read-out: 10 µM (% DMSO), alamarBlue viability of expanded OPCs, compound at 10 µM, sheet All Tox data
[12] = test compound at 2 uM, MBP expression relative to quetiapine, NCC library screen, read-out: 2 uM (% Quet)
[13] = test compound at 10 uM, MBP expression relative to quetiapine, NCC library screen, read-out: 10 uM (% Quet)
[14] = NCC library screen, relative to quetiapine

In the case of `O=C(O)COCCN1CCN(C(c2ccccc2)c2ccc(Cl)cc2)CC1` (centres unmarked) [Cetirizine], the activation at 2 µM [1, 2] is reported as 9.7%, the activation at 10 µM [1, 3] is reported as 9.5% and the viability at 0.1 µM (expanded OPCs; [4]) is reported as 92.3%. For the same molecule, the viability at 1 µM (expanded OPCs; [5]) was 89.3% and the viability at 10 µM (expanded OPCs; [6]) was 87.4%.

With `O=C(CCNNC(=O)c1ccncc1)NCc1ccccc1` [Nialamide] the activation at 2 µM [1, 2] was 2.8%, the activation at 10 µM [1, 3] was 14.8% and the viability at 0.1 µM (expanded OPCs; [4]) was 95%. The viability at 1 µM (expanded OPCs; [5]) was 96.2% and the viability at 10 µM (expanded OPCs; [6]) was 91.7%.

Molecule `NC1=NC(=O)C(c2ccccc2)O1` (centres unmarked) [Pemoline] has an activation at 2 µM [1, 7] of -15.2%, an activation at 10 µM [1, 8] of -10.6% and a viability at 0.1 µM (expanded OPCs; [9]) of 96%. For the same molecule, the viability at 1 µM (expanded OPCs; [10]) was 104% and the viability at 10 µM (expanded OPCs; [11]) was 101%.

`C[C@@](Cc1ccc(O)c(O)c1)(NN)C(=O)O` [Carbidopa] was tested, and the activation at 2 µM [1, 12] was -35.6%, the activation at 10 µM [1, 13] was -121% and the “0.1 µM (% DMSO)” value (expanded OPCs; relative to DMSO control) was 108.9 % DMSO. The “1 µM (% DMSO)” value (expanded OPCs; relative to DMSO control) was 101.2 % DMSO and the “10 µM (% DMSO)” value (expanded OPCs; relative to DMSO control) was 82.3 % DMSO.

Work on `O=C(O)c1cc(/N=N/c2ccc(S(=O)(=O)Nc3ccccn3)cc2)ccc1O` [Sulfasalazine] yielded an activation at 2 µM [1, 7] of 15.1%, an activation at 10 µM [1, 8] of -0.6% and a viability at 0.1 µM (expanded OPCs; [9]) of 89%. The viability at 1 µM (expanded OPCs; [10]) was 89.8% and the viability at 10 µM (expanded OPCs; [11]) was 94.9%.

With `COC1=C(OC)C(=O)C(CCCCCCCCCCO)=C(C)C1=O` [Idebenone] the activation at 0.4 µM ([1]; 0.4 uM test compound, relative to quetiapine, read-out: OL differentiation, 0.4 uM (% Quet)) was -11.1%, the viability at 0.1 µM (expanded OPCs; [9]) was 99.7% and the viability at 1 µM (expanded OPCs; [10]) was 80.9%. For the same molecule, the viability at 10 µM (expanded OPCs; [11]) was 11%.

With `Cc1cn([C@H]2C[C@H](N=[N+]=[N-])[C@@H](CO)O2)c(=O)[nH]c1=O` [Zidovudine] the activation at 2 µM [1, 12] was -29.4%, the activation at 10 µM [1, 13] was -41.2% and the “0.1 µM (% DMSO)” value (expanded OPCs; relative to DMSO control) was 89.6 % DMSO. The “1 µM (% DMSO)” value (expanded OPCs; relative to DMSO control) was 85.7 % DMSO and the “10 µM (% DMSO)” value (expanded OPCs; relative to DMSO control) was 83.9 % DMSO.

With `C[C@H]1O[C@@H](O[C@H]2[C@@H](O)C[C@H](O[C@H]3[C@@H](O)C[C@H](O[C@H]4CC[C@@]5(C)[C@H](CC[C@@H]6[C@@H]5C[C@@H](O)[C@]5(C)[C@@H](C7=CC(=O)OC7)CC[C@]65O)C4)O[C@@H]3C)O[C@@H]2C)C[C@H](O)[C@@H]1O` [Digoxin] the activation at 2 µM [1, 2] was -10.3%, the activation at 10 µM [1, 3] was 22.8% and the viability at 0.1 µM (expanded OPCs; [4]) was 103%. For the same molecule, the viability at 1 µM (expanded OPCs; [5]) was 99.8% and the viability at 10 µM (expanded OPCs; [6]) was 106%.

In the case of `Brc1c(NC2=NCCN2)ccc2nccnc12` [Brimonidine], the activation at 2 µM [1, 12] is reported as 21.9%, the activation at 10 µM [1, 13] is reported as 8.8% and the “0.1 µM (% DMSO)” value (expanded OPCs; relative to DMSO control) is reported as 91.9 % DMSO. The “1 µM (% DMSO)” value (expanded OPCs; relative to DMSO control) was 99.2 % DMSO and the “10 µM (% DMSO)” value (expanded OPCs; relative to DMSO control) was 95.4 % DMSO.

`Cc1ccc(-c2cc(C(F)(F)F)nn2-c2ccc(S(N)(=O)=O)cc2)cc1` [Celecoxib] was tested, and the activation at 2 µM [1, 12] was 14.8%, the activation at 10 µM [1, 13] was 9% and the “0.1 µM (% DMSO)” value (expanded OPCs; relative to DMSO control) was 94.3 % DMSO. For the same molecule, the “1 µM (% DMSO)” value (expanded OPCs; relative to DMSO control) was 89.6 % DMSO and the “10 µM (% DMSO)” value (expanded OPCs; relative to DMSO control) was 87.2 % DMSO.

Work on `COc1ccc2nc([S@@+]([O-])Cc3ncc(C)c(OC)c3C)[nH]c2c1` [Esomeprazole] yielded an activation at 2 µM [1, 7] of 12.7%, an activation at 10 µM [1, 8] of -23.8% and a viability at 0.1 µM (expanded OPCs; [9]) of 85.5%. For the same molecule, the viability at 1 µM (expanded OPCs; [10]) was 90% and the viability at 10 µM (expanded OPCs; [11]) was 95.3%.

With `CN1CC[C@@H](c2ccc(F)cc2)[C@H](COc2ccc3c(c2)OCO3)C1` [N-Methylparoxetine] the “OL differentiation, 0.4 uM (% Quet)” value ([1]; 0.4 uM test compound, relative to quetiapine) was -15.7 % Quet, the “OL differentiation, 2 uM (% Quet)” value ([1]; 2 uM test compound, relative to quetiapine) was -45.1 % Quet and the “0.1 µM (% DMSO)” value (expanded OPCs; sheet All Tox data) was 86.7 % DMSO. The “1 µM (% DMSO)” value (expanded OPCs; sheet All Tox data) was 60.7 % DMSO and the “10 µM (% DMSO)” value (expanded OPCs; sheet All Tox data) was 18.7 % DMSO.

Work on `CCc1c2c(nc3ccc(OC(=O)N4CCC(N5CCCCC5)CC4)cc13)-c1cc3c(c(=O)n1C2)COC(=O)[C@]3(O)CC` [Irinotecan] yielded an activation at 0.08 µM [1, 14] of -38.4%, an activation at 0.4 µM ([1]; test compound at 0.4 uM, NCC library screen, relative to quetiapine, read-out: 0.4 uM (% Quet)) of -140% and a viability at 0.1 µM (expanded OPCs; [4]) of 82.8%. The viability at 1 µM (expanded OPCs; [5]) was 49.7% and the viability at 10 µM (expanded OPCs; [6]) was 27.9%.

`CCCCc1oc2ccccc2c1C(=O)c1cc(I)c(OCCN(CC)CC)c(I)c1` [Amiodarone] was tested, and the activation at 0.08 µM [1, 14] was 44.2%, the viability at 0.1 µM (expanded OPCs; [4]) was 74.9% and the viability at 1 µM (expanded OPCs; [5]) was 8.8%. For the same molecule, the viability at 10 µM (expanded OPCs; [6]) was 8.6%.
